Measured values taken from ChEMBL document CHEMBL2046411, “Virtual Screening and X-ray Crystallography for Human Kallikrein 6 Inhibitors with an Amidinothiophene P1 Group” (ACS Med Chem Lett, 2012).

Target: Kallikrein-6 (Homo sapiens, UniProt Q92876)
Assay: Inhibition of N-terminus His6-tagged human kallikrein 6 expressed in baculovirus infected insect sf9 cells using Boc-Phe-Ser-Arg-AMC as substrate by fluorescence analysis

Structure (SMILES): COc1ccc2ccc(S(=O)(=O)N(Cc3ccccc3)[C@H]3CCN(Cc4ccc(C(=N)N)s4)C3=O)cc2c1
- IC50: 1500 nM
